Values after ≈ are worked out from the molar mass of the structure shown. Active and inactive are the calls of the source. No cut-off for these calls is given here.
Assays:
Escherichia coli [1] = assay: Antibacterial activity against Escherichia coli KCTC 1682 strain assessed as bacterial growth inhibition measured after 6 hrs in presence of trypsin by radial diffusion assay; assay type: functional, organism-based
Staphylococcus aureus [2] = assay: Additive antibacterial activity against multidrug-resistant Staphylococcus aureus CCARM 3089 strain assessed as oxacillin fractional inhibitory concentration by checkerboard assay; assay type: functional
Pseudomonas aeruginosa [3] = assay: Antibacterial activity against multidrug-resistant Pseudomonas aeruginosa CCARM 2109 strain assessed as bacterial growth inhibition measured at 18 to 24 hrs by microdilution assay; assay type: functional; conditions: time 18-24 hrs
Lipopolysaccharide (LPS) [4] = assay: Binding affinity to Escherichia coli O111:B4 lipopolysaccharide assessed as suppression of FTIC labeled LPS binding to mouse RAW264.7 cells at 20 ug/ml pretreated with LPS followed by compound addition by flow cytometer assay (reference value: 67.4%); assay type: cell-based; conditions: dose 20.0 µg/ml
Staphylococcus aureus [5] = assay: Antibacterial activity against methicillin-resistant Staphylococcus aureus CCARM 3090 strain assessed as bacterial growth inhibition measured at 18 to 24 hrs by microdilution assay; assay type: functional; conditions: time 18-24 hrs
Enterococcus faecium = assay: Antibacterial activity against vancomycin-resistant Enterococcus faecium ATCC 51559 strain assessed as bacterial growth inhibition measured at 18 to 24 hrs by microdilution assay; assay type: functional; conditions: time 18-24 hrs
Pseudomonas aeruginosa [6] = assay: Antibacterial activity against multidrug-resistant Pseudomonas aeruginosa CCARM 2095 strain assessed as bacterial growth inhibition measured at 18 to 24 hrs by microdilution assay; assay type: functional; conditions: time 18-24 hrs
Pseudomonas aeruginosa [7] = assay: Synergistic antibacterial activity against multidrug-resistant Pseudomonas aeruginosa CCARM 2095 strain assessed as bacterial growth inhibition in presence of oxacillin by checkerboard assay; assay type: functional
DNA = assay: Binding affinity to plasmid DNA (unknown origin) assessed as retardation of DNA migration at 4 to 8 ug/ml incubated for 1 hr by agarose gel electrophoresis method; assay type: nucleic-acid assay; conditions: dose 4-8 µg/ml
Cell membrane [8] = assay: Induction of inner membrane permeabilization in Escherichia coli ML-35 assessed as increase in […] at 2 times MIC by ONPG staining based analysis
Staphylococcus aureus [9] = assay: Antibacterial activity against methicillin-resistant Staphylococcus aureus CCARM 3089 strain assessed as bacterial growth inhibition measured at 18 to 24 hrs by microdilution assay; assay type: functional; conditions: time 18-24 hrs
Pseudomonas aeruginosa [10] = assay: Synergistic antibacterial activity against multidrug-resistant Pseudomonas aeruginosa CCARM 2095 strain assessed as ciprofloxacin MIC by checkerboard assay; assay type: functional
Staphylococcus aureus [11] = assay: Antibacterial activity against Staphylococcus aureus KCTC 1621 strain assessed as bacterial growth inhibition measured at 18 to 24 hrs in presence of 2.5 mM CaCl2 by microdilution assay; assay type: functional; conditions: time 18-24 hrs
Pseudomonas aeruginosa [12] = assay: Synergistic antibacterial activity against multidrug-resistant Pseudomonas aeruginosa CCARM 2095 strain assessed as fractional inhibitory concentration index in presence of ciprofloxacin by checkerboard assay; assay type: functional
Staphylococcus aureus [13] = assay: Synergistic antibacterial activity against multidrug-resistant Staphylococcus aureus CCARM 3089 strain assessed as oxacillin fractional inhibitory concentration by checkerboard assay; assay type: functional
Pseudomonas aeruginosa [14] = assay: Synergistic antibacterial activity against multidrug-resistant Pseudomonas aeruginosa CCARM 2095 strain assessed as oxacillin fractional inhibitory concentration in presence of oxacillin by checkerboard assay; assay type: functional
Escherichia coli [15] = assay: Antibacterial activity against Escherichia coli KCTC 1682 strain assessed as bacterial growth inhibition measured at 18 to 24 hrs in presence of 1 mM MgCl2 by microdilution assay; assay type: functional; conditions: time 18-24 hrs
Staphylococcus aureus [16] = assay: Antibacterial activity against methicillin-resistant Staphylococcus aureus CCARM 3089 strain assessed as bacterial growth inhibition by checkerboard assay; assay type: functional
Staphylococcus aureus [17] = assay: Synergistic antibacterial activity against methicillin-resistant Staphylococcus aureus CCARM 3089 strain assessed as fractional inhibitory concentration in presence of oxacillin by checkerboard assay; assay type: functional
Pseudomonas aeruginosa [18] = assay: Synergistic antibacterial activity against multidrug-resistant Pseudomonas aeruginosa CCARM 2095 strain assessed as chloramphenicol MIC by checkerboard assay; assay type: functional
Pseudomonas aeruginosa [19] = assay: Synergistic antibacterial activity against multidrug-resistant Pseudomonas aeruginosa CCARM 2095 strain assessed as bacterial growth inhibition by checkerboard assay; assay type: functional
Staphylococcus aureus [20] = assay: Additive antibacterial activity against multidrug-resistant Staphylococcus aureus CCARM 3089 strain assessed as fractional inhibitory concentration index in presence of oxacillin by checkerboard assay; assay type: functional
Staphylococcus aureus [21] = assay: Synergistic antibacterial activity against methicillin-resistant Staphylococcus aureus CCARM 3089 strain assessed as bacterial growth inhibition in presence of oxacillin by checkerboard assay; assay type: functional
Escherichia coli [22] = assay: Antibacterial activity against Escherichia coli KCTC 1682 strain assessed as bacterial growth inhibition measured at 18 to 24 hrs in presence of 4 uM FeCl3 by microdilution assay; assay type: functional; conditions: time 18-24 hrs
Staphylococcus aureus [23] = assay: Synergistic antibacterial activity against multidrug-resistant Staphylococcus aureus CCARM 3089 strain assessed as fractional inhibitory concentration index in presence of oxacillin by checkerboard assay; assay type: functional
Staphylococcus aureus [24] = assay: Synergistic antibacterial activity against methicillin-resistant Staphylococcus aureus CCARM 3089 strain assessed as ciprofloxacin MIC by checkerboard assay; assay type: functional
Escherichia coli [25] = assay: Antibacterial activity against Escherichia coli KCTC 1682 strain assessed as bacterial growth inhibition measured at 18 to 24 hrs in presence of 4.5 mM KCl by microdilution assay; assay type: functional; conditions: time 18-24 hrs
Escherichia coli [26] = assay: Antibacterial activity against Escherichia coli KCTC 1682 strain assessed as bacterial growth inhibition measured after 6 hrs in presence of chymotrypsin by radial diffusion assay; assay type: functional, organism-based
Staphylococcus aureus [27] = assay: Antibacterial activity against methicillin-resistant Staphylococcus aureus CCARM 3095 strain assessed as bacterial growth inhibition measured at 18 to 24 hrs by microdilution assay; assay type: functional; conditions: time 18-24 hrs
Escherichia coli [28] = assay: Antibacterial activity against Escherichia coli KCTC 1682 strain assessed as bacterial growth inhibition measured at 18 to 24 hrs by microdilution assay; assay type: functional; conditions: time 18-24 hrs
Pseudomonas aeruginosa [29] = assay: Antibacterial activity against Pseudomonas aeruginosa KCTC 1637 strain assessed as bacterial growth inhibition measured at 18 to 24 hrs by microdilution assay; assay type: functional; conditions: time 18-24 hrs
Staphylococcus aureus [30] = assay: Antibacterial activity against Staphylococcus aureus KCTC 1621 strain assessed as bacterial growth inhibition measured at 18 to 24 hrs by microdilution assay; assay type: functional; conditions: time 18-24 hrs
Pseudomonas aeruginosa [31] = assay: Synergistic antibacterial activity against multidrug-resistant Pseudomonas aeruginosa CCARM 2095 strain assessed as fractional inhibitory concentration index in presence of chloramphenicol by checkerboard assay; assay type: functional
Cell membrane [32] = assay: Induction of cell membrane damage in Escherichia coli KCTC 1682 assessed as increase in fluorescent intensity at 2 times MIC incubated for 30 mins by PI staining based flow cytometry assay (reference value: 9.79 %); assay type: subcellular
Staphylococcus aureus [33] = assay: Synergistic antibacterial activity against multidrug-resistant Staphylococcus aureus CCARM 3089 strain assessed as ciprofloxacin fractional inhibitory concentration by checkerboard assay; assay type: functional
Lipopolysaccharide (LPS) [34] = assay: Binding affinity to Escherichia coli O111:B4 lipopolysaccharide assessed as suppression of FTIC labeled LPS binding to mouse RAW264.7 cells at 20 ug/ml pretreated LPS with cells for 1 hr followed by compound addition measured after 1 hr by flow cytometer assay (reference value: 48.12%); assay type: cell-based; conditions: dose 20.0 µg/ml

| Compound | Activity (Escherichia coli [1]) | FIC (Staphylococcus aureus [2]) | MIC (Pseudomonas aeruginosa [3]) [µM] | Flu intensity (Lipopolysaccharide (LPS) [4]) [%] | MIC (Staphylococcus aureus [5]) [µM] | MIC (Enterococcus faecium) [µM] | MIC (Pseudomonas aeruginosa [6]) [µM] | MIC (Pseudomonas aeruginosa [7]) [µg/mL] | Activity (DNA) | Activity (Cell membrane [8]) | MIC (Staphylococcus aureus [9]) [µM] | MIC (Pseudomonas aeruginosa [10]) [µg/mL] | MIC (Staphylococcus aureus [11]) [µM] | fractional inhibitory concentration index (FICI) (Pseudomonas aeruginosa [12]) | FIC (Staphylococcus aureus [13]) | FIC (Pseudomonas aeruginosa [14]) | MIC (Escherichia coli [15]) [µM] | MIC (Staphylococcus aureus [16]) [µg/mL] | FIC (Staphylococcus aureus [17]) | MIC (Pseudomonas aeruginosa [18]) [µg/mL] | further results |
| --- | --- | --- | --- | --- | --- | --- | --- | --- | --- | --- | --- | --- | --- | --- | --- | --- | --- | --- | --- | --- | --- |
| NCCCN(CCCN)c1nc(NCc2ccccc2)nc(N2CC(Cc3ccccc3)N(c3nc(NCc4ccccc4)nc(N(CCCN)CCCN)n3)CC2Cc2ccccc2)n1 (configuration not stated) | Active | 0.125 | 10 (≈ 8.93 µg/mL) | 13.2 | 2.8 (≈ 2.5 µg/mL) | 10 (≈ 8.93 µg/mL) | 20 (≈ 17.9 µg/mL) | 4 | Active | inactive | 5 (≈ 4.47 µg/mL) | 64 | 5 | 0.312 | 0.25 | 0.25 | 5 | 4 | 0.25 | 128 | MIC (Pseudomonas aeruginosa [19]): 16 µg/mL; fractional inhibitory concentration index (FICI) (Staphylococcus aureus [20]): 0.375; MIC (Staphylococcus aureus [21]): 1 µg/mL; MIC (Escherichia coli [22]): 5 µM; fractional inhibitory concentration index (FICI) (Staphylococcus aureus [23]): 0.375; MIC (Staphylococcus aureus [24]): 64 µg/mL; MIC (Escherichia coli [25]): 5 µM; Activity (Escherichia coli [26]): Active; MIC (Staphylococcus aureus [27]): 5 µM (≈ 4.47 µg/mL); MIC (Escherichia coli [28]): 5 µM (≈ 4.47 µg/mL); MIC (Pseudomonas aeruginosa [29]): 10 µM (≈ 8.93 µg/mL); MIC (Staphylococcus aureus [30]): 2.5 µM (≈ 2.23 µg/mL); fractional inhibitory concentration index (FICI) (Pseudomonas aeruginosa [31]): 0.375; Flu intensity (Cell membrane [32]): 3.03%; FIC (Staphylococcus aureus [33]): 0.125; Flu intensity (Lipopolysaccharide (LPS) [34]): 27.4% |
| NCCN(CCN)c1nc(NCc2ccccc2)nc(N2CC(Cc3ccccc3)N(c3nc(NCc4ccccc4)nc(N(CCN)CCN)n3)CC2Cc2ccccc2)n1 (configuration not stated) | Active | 0.25 | 10.7 (≈ 8.96 µg/mL) | 8 | 5.4 (≈ 4.52 µg/mL) | 21.4 (≈ 17.9 µg/mL) | 21.4 (≈ 17.9 µg/mL) | 4 | Active | inactive | 5.4 (≈ 4.52 µg/mL) | 256 | 5.4 | 0.375 | 0.25 | 0.25 | 10.8 | 4 | 0.25 | 256 | MIC (Pseudomonas aeruginosa [19]): 16 µg/mL; fractional inhibitory concentration index (FICI) (Staphylococcus aureus [20]): 0.5; MIC (Staphylococcus aureus [21]): 1 µg/mL; MIC (Escherichia coli [22]): 10.8 µM; fractional inhibitory concentration index (FICI) (Staphylococcus aureus [23]): 0.5; MIC (Staphylococcus aureus [24]): 64 µg/mL; MIC (Escherichia coli [25]): 5.4 µM; Activity (Escherichia coli [26]): Active; MIC (Staphylococcus aureus [27]): 5.4 µM (≈ 4.52 µg/mL); MIC (Escherichia coli [28]): 5.4 µM (≈ 4.52 µg/mL); MIC (Pseudomonas aeruginosa [29]): 5.4 µM (≈ 4.52 µg/mL); MIC (Staphylococcus aureus [30]): 5.4 µM (≈ 4.52 µg/mL); fractional inhibitory concentration index (FICI) (Pseudomonas aeruginosa [31]): 0.5; Flu intensity (Cell membrane [32]): 10.5%; FIC (Staphylococcus aureus [33]): 0.125; Flu intensity (Lipopolysaccharide (LPS) [34]): 16.4% |

Source: ChEMBL document CHEMBL5331051, “Cationic, amphipathic small molecules based on a triazine-piperazine-triazine scaffold as a new class of antimicrobial agents” (Eur J Med Chem, 2022)
